Source: patent US8367666B2 (priority 2004, dated 2013)
Where a name gives a salt, the structure may show the parent alone. Read-outs that look alike come from different tables or passages of the source.

Experiments:
[1] = molecular target: T1, CB2 receptor (Homo sapiens, UniProt P34972); test: cAMP formation inhibition experiment through a cannabinoid receptor (forskolin stimulation), CB2; assay type: cell-based; set-up: expressed in transfected cells; host or cells: CHO cells
[2] = molecular target: T2, CB1 receptor (Homo sapiens, UniProt P21554); test: cAMP formation inhibition experiment through a cannabinoid receptor (forskolin stimulation), CB1; assay type: cell-based; set-up: expressed in transfected cells; host or cells: CHO cells
T2 sequence (P21554 whole entry): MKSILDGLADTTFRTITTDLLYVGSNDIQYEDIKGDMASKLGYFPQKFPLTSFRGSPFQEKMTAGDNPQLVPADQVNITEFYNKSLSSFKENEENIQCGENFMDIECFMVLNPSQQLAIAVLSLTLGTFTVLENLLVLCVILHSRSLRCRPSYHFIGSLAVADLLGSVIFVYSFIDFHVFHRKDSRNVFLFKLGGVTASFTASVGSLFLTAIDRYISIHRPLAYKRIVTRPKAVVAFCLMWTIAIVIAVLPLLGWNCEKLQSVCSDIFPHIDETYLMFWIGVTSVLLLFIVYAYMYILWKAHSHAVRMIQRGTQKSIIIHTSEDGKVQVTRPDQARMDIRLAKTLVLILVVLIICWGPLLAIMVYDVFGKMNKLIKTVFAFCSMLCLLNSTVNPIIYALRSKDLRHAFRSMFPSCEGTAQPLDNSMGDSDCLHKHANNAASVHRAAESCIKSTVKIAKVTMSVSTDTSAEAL
Experimental: A compound being tested was added in the CHO cell which had mad human CB1 or CB2 receptor reveal and incubated for 15 minutes, and then forskolin (the final concentration 4 μM, and manufactured by SIGMA Corp.) was added and the mixture was incubated for 20 minutes. After the reaction had been stopped by adding 1M hydrochloric acid, the amount of cAMP in the supernatant was measured with the use of Cyclic AMP kit (made by the CIS Diagnostic Corp.).

[3] = system: scratching action induced by Compound 48/80; test: Anti-pruritic activity test by application (Compound 48/80 scratching); assay type: in vivo, mouse (Crj:CD-1 (ICR)); conditions: topical, read-out: Itching inhibition ratio % (Concentration %)
Experimental: 1) Preparation of the compound and the reagent: The compound being tested was dissolved in acetone (SIGMA). Compound 48/80 (SIGMA) was dissolved in physiological saline (m by Otsuka Pharmaceutical Co., Ltd.) so as to be 60 μg/mL.
2) Animals: Female Crj: CD-1 (ICR) mice of 6 to 10 age in week (Japan Charles Liver) were used as laboratory animals. The animals were fed in the barrier breeding room where […] in room temperature, 30 to 70% in humidity, and the light and shade condition existed every 12 hours and feed (CE-2: Japan Crea) and the drinking water were freely taken. The hair of dorsa (from the cervical region of the back to the center of the back) of the animals were cut with a hair clipper two days or more before the anti-pruritic activity is evaluated, those with no wound, rubefaction, and thickening of the skin on the dehaired part were chosen and supplied to the experiment on the day of the evaluation. 3) Evaluation procedures: The acetone solution of the compound being tested was applied by 50 μL on the dehaired parts of the mice with a pipeter. On the mice of the control group, 50 μL of acetone was applied. The 15 minutes later, 50 μL (corresponding to 3 μg) of Compound 48/80 solution was injected intradermally in the compound applied parts with the use of a injector (Terumo Corporation), the mice were individually put in five observation cages made of acrylate resin at once, and the scratching action (action of scratching the injection part by the hind leg) frequency during 30 minutes was measured. The evaluation was carried out in one group of 5 to 7 mice. 4) Data processing: The experiment results were shown by the mean values. The test of the significant difference of the compound applying group to the control group was conducted with Welch's t-test, and p<0.05 was assumed to be significant.

[4] = molecular target: T2, CB1 receptor; test: Human cannabinoid receptor bonding inhibition test ([3H]CP55940), CB1; assay type: binding; set-up: expressed in transfected cells; membrane fraction
[5] = molecular target: T1, CB2 receptor; test: Human cannabinoid receptor bonding inhibition test ([3H]CP55940), CB2; assay type: binding; set-up: expressed in transfected cells; membrane fraction
[6] = read-out: Agonist activity (nM) CB1
[7] = [3H]CP55940 0.5 nM, membrane preparation of CHO cells expressing CB1, Ki calculated from IC50, read-out: Binding activity (nM) CB1
[8] = inhibition of forskolin (4 μM)-stimulated cAMP formation, CHO cells expressing human CB2, read-out: Agonist activity (nM) CB2
[9] = [3H]CP55940 0.5 nM, membrane preparation of CHO cells expressing CB2, Ki calculated from IC50, read-out: Binding activity (nM) CB2
[10] = inhibition of forskolin (4 μM)-stimulated cAMP formation, CHO cells expressing human CB1, read-out: Agonist activity (nM) CB1

T1 sequence (P34972 whole entry): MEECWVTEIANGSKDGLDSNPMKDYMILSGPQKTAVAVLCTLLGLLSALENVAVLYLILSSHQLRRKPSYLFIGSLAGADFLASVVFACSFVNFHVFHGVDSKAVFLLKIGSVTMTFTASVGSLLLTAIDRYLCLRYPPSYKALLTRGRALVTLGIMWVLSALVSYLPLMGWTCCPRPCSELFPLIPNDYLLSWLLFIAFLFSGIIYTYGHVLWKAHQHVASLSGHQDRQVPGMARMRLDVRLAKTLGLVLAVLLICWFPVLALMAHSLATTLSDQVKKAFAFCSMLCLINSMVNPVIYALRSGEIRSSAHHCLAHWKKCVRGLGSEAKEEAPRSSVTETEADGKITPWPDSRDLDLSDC

Structure (SMILES): CN1CCN(C(=O)C(C)(C)NC(=O)c2cc3c(n(CC4CCCCC4)c2=O)CCCCCC3)CC1
- melting point: 183 to 184 °C

Structure (SMILES): CC(C)(NC(=O)c1cc2c(n(CC3CCCCC3)c1=O)CCCCCC2)C(=O)NN
- melting point: 177 to 180 °C

Structure (SMILES): CC(C)(NC(=O)c1cc2c(n(CCCNS(C)(=O)=O)c1=O)CCCCCC2)C(=O)O
- melting point: 183 to 184 °C

Structure (SMILES): CCCCn1c(CCC)c(CC)cc(C(=O)NC2CCCCC2C(=O)O)c1=O (stereo not shown)
- melting point: 167 to 169 °C

Structure (SMILES): COC(=O)NCCCn1c2c(cc(C(=O)NC(C)(C)C(=O)OC)c1=O)CCCCCC2 (as salt: phosphate)
- melting point: 135 to 136 °C

Structure (SMILES): CC(C)(NC(=O)c1cc2c(n(CC3CCCCC3)c1=O)CCCCCC2)C(=O)NNS(C)(=O)=O [Compound I-052, 1-cyclohexylmethyl-2-oxo-1,2,5,6,7,8,9,10-octahydro-cycloocta[b]pyridine-3-carboxylic acid (1-methylsulfonylhydrazinocarbonyl-1-methyl-ethyl)-amide]
- IC50 [1]: 8.1 nM
- melting point: 177 to 178 °C
- IC50 [2, 6]: 49 nM
- inhibition in vivo at 3 % ([3]; Mus musculus): 80%

Structure (SMILES): CC(C)NC(=O)N1CCN(C(=O)C(C)(C)NC(=O)c2cc3c(n(CC4CCCCC4)c2=O)CCCCCC3)CC1 [Compound I-604]
- Ki [4]: 16 nM
- IC50 [1]: 4.8 nM
- Ki [5]: 2.5 nM
- IC50 [2, 6]: 55 nM
- inhibition in vivo at 3 % ([3]; Mus musculus): 95%

Structure (SMILES): CC(C)(NC(=O)c1cc2c(n(CC3CCCCC3)c1=O)CCCCCC2)C(=O)N1CCC(C(=O)NNS(C)(=O)=O)CC1 [Compound I-606]
- Ki [4]: 60 nM
- IC50 [1]: 8.7 nM
- Ki [5]: 4.4 nM
- IC50 [2, 6]: 118 nM
- inhibition in vivo at 1 % ([3]; Mus musculus): 86%

Structure (SMILES): CCCCNC(=O)C1CCCN(C(=O)C(C)(C)NC(=O)c2cc3c(n(CC4CCCCC4)c2=O)CCCCCC3)C1 (stereo not shown) [Compound I-608]
- Ki [4]: 527 nM
- IC50 [1]: 3.5 nM
- Ki [5]: 11 nM
- IC50 [2, 6]: > 2000 nM
- inhibition in vivo at 3 % ([3]; Mus musculus): 75%

Structure (SMILES): CC(C)(NC(=O)c1cc2c(n(CC3CCCCC3)c1=O)CCCCCC2)C(=O)N1CCC(C(=O)N2CCOCC2)CC1 [Compound I-617]
- Ki [4]: 295 nM
- IC50 [1]: 18 nM
- Ki [5]: 6.6 nM
- IC50 [2, 6]: 79 nM
- inhibition in vivo at 1 % ([3]; Mus musculus): 96%

Structure (SMILES): O=C(O)Cc1nsc(NC(=O)c2cc3c(n(CC4CCCCC4)c2=O)CCCCCC3)n1 [Compound X-21]
- Ki [4, 7]: 1770 nM
- IC50 [1]: 30 nM
- Ki [5]: 3.3 nM
- IC50 [2]: > 2000 nM
- inhibition in vivo at 1 % ([3]; Mus musculus): 106%

Structure (SMILES): O=C(N[C@@H](C(=O)O)c1ccccc1)c1cc2c(n(CCCC(F)(F)F)c1=O)CCCCCC2 [Compound X-54]
- Ki [4]: 93 nM
- IC50 [1]: 3.7 nM
- Ki [5]: < 2 nM
- IC50 [2, 6]: > 2000 nM
- inhibition in vivo at 1 % ([3]; Mus musculus): 100%

Structure (SMILES): O=C(O)CCc1csc(NC(=O)c2cc3c(n(CC4CCCCC4)c2=O)CCCCCC3)n1 [Compound X-64]
- Ki [4, 7]: 580 nM
- IC50 [1, 8]: 15 nM
- Ki [5, 9]: 18 nM
- IC50 [2, 10]: 454 nM
- inhibition in vivo at 1 % ([3]; applied as acetone solution 50 μL, concentration 1.0%, mouse, Compound 48/80): 99%

Structure (SMILES): CCCC(CC(=O)O)NC(=O)c1cc2c(n(CC3CCCCC3)c1=O)CCCCCC2 (stereo not shown) [Compound X-66]
- Ki [4, 7]: > 2000 nM
- IC50 [1]: 50 nM
- Ki [5]: 92 nM
- IC50 [2]: 549 nM
- inhibition in vivo at 1 % ([3]; Mus musculus): 71%

Structure (SMILES): CCCCC(CC(=O)O)NC(=O)c1cc2c(n(CC3CCCCC3)c1=O)CCCCCC2 (stereo not shown) [Compound X-67]
- Ki [4, 7]: > 2000 nM
- IC50 [1]: 40 nM
- Ki [5]: 96 nM
- IC50 [2]: > 2000 nM
- inhibition in vivo at 1 % ([3]; Mus musculus): 79%

Structure (SMILES): O=C(O)Cc1cnc(NC(=O)c2cc3c(n(CCCC(F)(F)F)c2=O)CCCCCC3)s1 [Compound X-115]
- Ki [4, 7]: 1220 nM
- IC50 [1]: 8.6 nM
- Ki [5]: 3.3 nM
- IC50 [2]: > 2000 nM
- inhibition in vivo at 0.5 % ([3]; Mus musculus): 67%

Structure (SMILES): CCc1c(C)cc(C(=O)NC(CC)(CC)CC(=O)O)c(=O)n1Cc1ccc(F)cc1 [Compound X-216]
- Ki [4, 7]: 1770 nM
- IC50 [1]: 30 nM
- Ki [5]: 3.3 nM
- IC50 [2]: > 2000 nM
- inhibition in vivo at 1 % ([3]; Mus musculus): 106%

Structure (SMILES): O=C(O)COc1ccc(NC(=O)c2cc3c(n(CC4CCCCC4)c2=O)CCCCCC3)cc1 [Compound X-220]
- Ki ([4]; read-out: Binding activity (nM) CB1): 555 nM
- IC50 ([1]; read-out: Agonist activity (nM) CB2): 231 nM
- Ki [5]: 18 nM
- IC50 [2]: 1550 nM
- inhibition in vivo at 0.5 % ([3]; Mus musculus): 97%

Structure (SMILES): O=C(NC(C(=O)O)C(F)(F)F)c1cc2c(n(CC3CCCCC3)c1=O)CCCCCC2 (stereo not shown) [Compound X-229]
- Ki [4, 7]: 482 nM
- IC50 [1]: 27 nM
- Ki [5]: 12 nM
- IC50 [2]: 369 nM
- inhibition in vivo at 0.5 % ([3]; Mus musculus): 105%

Structure (SMILES): O=C(O)CC(NC(=O)c1cc2c(n(Cc3ccc(F)cc3)c1=O)CCCCCC2)C(F)(F)F (stereo not shown) [II-067]
- Ki [4, 7]: > 2000 nM
- IC50 [1]: 4.9 nM
- Ki [5]: 13 nM
- IC50 [2]: 685 nM
- inhibition in vivo at 3 % ([3]; Mus musculus): 68%

Structure (SMILES): CC(C)C[C@@H](CC(=O)O)NC(=O)c1cc2c(n(CC3CCCCC3)c1=O)CCCCCC2 [II-069]
- Ki [4]: 88 nM
- IC50 [1]: 2.1 nM
- Ki [5]: 3.4 nM
- IC50 [2, 6]: 5.6 nM
- inhibition in vivo at 3 % ([3]; Mus musculus): 84%

Structure (SMILES): O=C(O)CC1(NC(=O)c2cc3c(n(CC4CCCCC4)c2=O)CCCCCC3)CCCCC1 [II-073]
- Ki [4]: 88 nM
- IC50 [1]: 0.2 nM
- Ki [5]: 6.2 nM
- IC50 [2, 6]: 11 nM
- inhibition in vivo at 3 % ([3]; Mus musculus): 58%

Structure (SMILES): C/C=C/C(CC(=O)O)NC(=O)c1cc2c(n(CC3CCCCC3)c1=O)CCCCCC2 (stereo not shown) [II-075]
- Ki [4, 7]: 652 nM
- IC50 [1]: 4.6 nM
- Ki [5]: 48 nM
- IC50 [2]: 290 nM
- inhibition in vivo at 3 % ([3]; Mus musculus): 95%

Structure (SMILES): O=C(O)CC(NC(=O)c1cc2c(n(CC3CCCCC3)c1=O)CCCCCC2)C(F)(F)F (stereo not shown) [II-076]
- Ki [4, 7]: > 2000 nM
- IC50 [1]: 1.2 nM
- Ki [5]: 41 nM
- IC50 [2]: > 2000 nM
- inhibition in vivo at 3 % ([3]; Mus musculus): 86%

Structure (SMILES): CC(C)C[C@@H](CC(=O)O)NC(=O)c1cc2c(n(Cc3ccc(F)cc3)c1=O)CCCCCC2 [II-078]
- Ki [4, 7]: 1450 nM
- IC50 [1]: < 2 nM
- Ki [5]: 27 nM
- IC50 [2]: 252 nM
- inhibition in vivo at 3 % ([3]; Mus musculus): 94%

Structure (SMILES): CC(C)(CCNC(=O)c1cc2c(n(CC3CCCCC3)c1=O)CCCCCC2)C(=O)O [III-017]
- Ki [4, 7]: 149 nM
- IC50 [1]: 35 nM
- Ki [5]: 15 nM
- IC50 [2]: 322 nM
- inhibition in vivo at 3 % ([3]; Mus musculus): 76%

Structure (SMILES): O=C(O)Cc1csc(NC(=O)c2cc3c(n(CC4CCCCC4)c2=O)CCCCCC3)n1 [IV-023]
- Ki [4, 7]: 425 nM
- IC50 [1, 8]: 11 nM
- Ki [5, 9]: 22 nM
- IC50 [2, 10]: 398 nM
- inhibition in vivo at 3 % ([3]; applied as acetone solution 50 μL, concentration 3.0%, mouse, Compound 48/80): 116%

Structure (SMILES): O=C(O)Cc1csc(NC(=O)c2cc3c(n(CC4CCCCC4)c2=O)CCCCCC3)c1 [IV-029]
- Ki [4, 7]: 1320 nM
- IC50 [1]: 22 nM
- Ki [5]: 43 nM
- IC50 [2]: 606 nM
- inhibition in vivo at 1 % ([3]; Mus musculus): 93%

Structure (SMILES): COCCn1c2c(cc(C(=O)NC3(CC(=O)O)CCCC3)c1=O)CCCCCC2 [XI-035]
- Ki [4]: > 2000 nM
- IC50 [1]: 47 nM
- Ki [5]: 31 nM
- IC50 [2, 6]: > 2000 nM
- inhibition in vivo at 0.5 % ([3]; Mus musculus): 69%
